In patent US9113629B2, “4-amino-6-(4-substituted-phenyl)-picolinates and 6-amino-2-(4-substituted-phenyl)-pyrimidine-4-carboxylates and their use as herbicides” (DOW AGROSCIENCES LLC, priority 2013, dated 2015):
Where two headings read alike, the source gives them in different places.

Tests used:
[1] = tested on: Key Grass and Sedge Weeds as well as Grass Crops; experiment: Post-emergent Test II herbicidal activity (Table 6); assay type: in vivo; details: post-emergence, 336 h; for pest or weed control at 70 g/ha: application rate 70 g ai/ha; for pest or weed control at 140 g/ha: application rate 140 g ai/ha
Outline: (§1)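 Percent injury, 0 (none) to 100 (complete kill), was judged visually 14 d after spraying young plants at the first or second true leaf stage with compound in an acetone/DMSO aqueous carrier at 187 L/ha. Plants were kept in a greenhouse at 23–29 °C by day.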

[2] = tested on: Key Broadleaf Weed and Crop Species; experiment: Post-emergent Test II herbicidal activity (Table 5); assay type: in vivo; details: post-emergence, 336 h, post-emergent, 14 days after application; for pest or weed control at 70 g/ha: 70 g ai/ha; for pest or weed control at 140 g/ha: 140 g ai/ha
Outline: as §1

[3] = Triticum aestivum, TRZSS (wheat), read-out: Visual Growth Reduction (%) 14 Days After Application, TRZSS
[4] = CYPES: yellow nutsedge (Cyperus esculentus), read-out: Visual Growth Reduction (%) 14 Days After Application, CYPES
[5] = DIGSA: crabgrass (Digitaria sanguinalis), read-out: Visual Growth Reduction (%) 14 Days After Application, DIGSA
[6] = ECHCG: barnyardgrass (Echinochloa crus-galli), read-out: Visual Growth Reduction (%) 14 Days After Application, ECHCG
[7] = ORYSA: rice (Oryza sativa), read-out: Visual Growth Reduction (%) 14 Days After Application, ORYSA
[8] = SETFA: giant foxtail (Setaria faberi), read-out: Visual Growth Reduction (%) 14 Days After Application, SETFA
[9] = SORVU: grain sorghum (Sorghum vulgare), read-out: Visual Growth Reduction (%) 14 Days After Application, SORVU
[10] = ZEAMX: maize, corn (Zea mays), read-out: Visual Growth Reduction (%) 14 Days After Application, ZEAMX
[11] = ABUTH: velvetleaf (Abutilon theophrasti), read-out: Visual Growth Reduction (%) 14 Days After Application ABUTH
[12] = AMARE: redroot pigweed (Amaranthus retroflexus), read-out: Visual Growth Reduction (%) 14 Days After Application AMARE
[13] = BRSNN: oilseed-rape, canola (Brassica napus), read-out: Visual Growth Reduction (%) 14 Days After Application BRSNN
[14] = CHEAL: lambsquarters (Chenopodium album), read-out: Visual Growth Reduction (%) 14 Days After Application CHEAL
[15] = EPHHL: wild poinsettia (Euphorbia heterophylla), read-out: Visual Growth Reduction (%) 14 Days After Application EPHHL
[16] = HELAN: sunflower (Helianthus annuus), read-out: Visual Growth Reduction (%) 14 Days After Application HELAN
[17] = VIOTR: wild pansy (Viola tricolor), read-out: Visual Growth Reduction (%) 14 Days After Application VIOTR

Which pest or weed control at 70 g/ha [1, 3] does the source give for `COC(=O)c1nc(-c2ccc(I)cc2)c(Cl)c(N)c1Cl` [Compound 96] here?
Its pest or weed control at 70 g/ha is 60 to 74%.

And the pest or weed control at 140 g/ha [1, 3]?
Its pest or weed control at 140 g/ha is 75 to 84%.

And the pest or weed control at 70 g/ha [1, 4]?
Its pest or weed control at 70 g/ha is 95 to 100%.

What about the pest or weed control at 140 g/ha [1, 4] of the same compound?
Its pest or weed control at 140 g/ha is 95 to 100%.

What about the pest or weed control at 70 g/ha [1, 5] of the same compound?
The pest or weed control at 70 g/ha was 60 to 74%.

What about the pest or weed control at 140 g/ha [1, 5] of the same compound?
Its pest or weed control at 140 g/ha is 75 to 84%.

And the pest or weed control at 70 g/ha [1, 6]?
The pest or weed control at 70 g/ha was 0 to 29%.

And the pest or weed control at 140 g/ha [1, 6]?
Its pest or weed control at 140 g/ha is 60 to 74%.

What about the pest or weed control at 70 g/ha [1, 7] of the same compound?
Its pest or weed control at 70 g/ha is 0 to 29%.

And the pest or weed control at 140 g/ha [1, 7]?
The pest or weed control at 140 g/ha was 0 to 29%.

What about the pest or weed control at 70 g/ha [1, 8] of the same compound?
Its pest or weed control at 70 g/ha is 60 to 74%.

And the pest or weed control at 140 g/ha [1, 8]?
The pest or weed control at 140 g/ha was 75 to 84%.

What about the pest or weed control at 70 g/ha [1, 9] of the same compound?
The pest or weed control at 70 g/ha was 85 to 94%.

And the pest or weed control at 140 g/ha [1, 9]?
Its pest or weed control at 140 g/ha is 85 to 94%.

What about the pest or weed control at 70 g/ha [1, 10] of the same compound?
Its pest or weed control at 70 g/ha is 75 to 84%.

What about the pest or weed control at 140 g/ha [1, 10] of the same compound?
The pest or weed control at 140 g/ha was 75 to 84%.

And the melting point?
The melting point was 187.2 to 189.9 °C.

What about the pest or weed control at 70 g/ha [2, 11] of the same compound?
The pest or weed control at 70 g/ha was 95 to 100%.

What about the pest or weed control at 140 g/ha [2, 11] of the same compound?
Its pest or weed control at 140 g/ha is 95 to 100%.

What about the pest or weed control at 70 g/ha [2, 12] of the same compound?
Its pest or weed control at 70 g/ha is 85 to 94%.

What about the pest or weed control at 140 g/ha [2, 12] of the same compound?
Its pest or weed control at 140 g/ha is 95 to 100%.

What about the pest or weed control at 70 g/ha [2, 13] of the same compound?
The pest or weed control at 70 g/ha was 75 to 84%.

And the pest or weed control at 140 g/ha [2, 13]?
Its pest or weed control at 140 g/ha is 85 to 94%.

And the pest or weed control at 70 g/ha [2, 14]?
The pest or weed control at 70 g/ha was 95 to 100%.

And the pest or weed control at 140 g/ha [2, 14]?
Its pest or weed control at 140 g/ha is 95 to 100%.

And the pest or weed control at 70 g/ha [2, 15]?
Its pest or weed control at 70 g/ha is 75 to 84%.

And the pest or weed control at 140 g/ha [2, 15]?
Its pest or weed control at 140 g/ha is 45 to 59%.

What about the pest or weed control at 70 g/ha [2, 16] of the same compound?
Its pest or weed control at 70 g/ha is 95 to 100%.

And the pest or weed control at 140 g/ha [2, 16]?
Its pest or weed control at 140 g/ha is 95 to 100%.

And the pest or weed control at 70 g/ha [2, 17]?
The pest or weed control at 70 g/ha was 0 to 29%.

And the pest or weed control at 140 g/ha [2, 17]?
Its pest or weed control at 140 g/ha is 0 to 29%.

What does the source list for `C=Cc1c(C(=O)OC)nc(-c2ccc(C(F)(F)F)c(F)c2F)c(F)c1N` [Compound 53, methyl 4-amino-6-(2,3-difluoro-4-(trifluoromethyl)phenyl)-5-fluoro-3-vinylpicolinate]?
pest or weed control at 70 g/ha [1, 3]: 0 to 29%; pest or weed control at 140 g/ha [1, 3]: 0 to 29%; pest or weed control at 70 g/ha [1, 4]: 0 to 29%; pest or weed control at 140 g/ha [1, 4]: 0 to 29%; pest or weed control at 70 g/ha [1, 5]: 0 to 29%; pest or weed control at 140 g/ha [1, 5]: 0 to 29%; pest or weed control at 70 g/ha [1, 6]: 0 to 29%; pest or weed control at 140 g/ha [1, 6]: 0 to 29%; pest or weed control at 70 g/ha [1, 7]: 0 to 29%; pest or weed control at 140 g/ha [1, 7]: 0 to 29%; pest or weed control at 70 g/ha [1, 8]: 0 to 29%; pest or weed control at 140 g/ha [1, 8]: 0 to 29%; pest or weed control at 70 g/ha [1, 9]: 0 to 29%; pest or weed control at 140 g/ha [1, 9]: 0 to 29%; pest or weed control at 70 g/ha [1, 10]: 0 to 29%; pest or weed control at 140 g/ha [1, 10]: 0 to 29%; melting point: 118 to 120 °C; pest or weed control at 70 g/ha [2, 11]: 0 to 29%; pest or weed control at 140 g/ha [2, 11]: 0 to 29%; pest or weed control at 70 g/ha [2, 12]: 0 to 29%; pest or weed control at 140 g/ha [2, 12]: 0 to 29%; pest or weed control at 70 g/ha [2, 13]: 0 to 29%; pest or weed control at 140 g/ha [2, 13]: 0 to 29%; pest or weed control at 70 g/ha [2, 14]: 0 to 29%; pest or weed control at 140 g/ha [2, 14]: 0 to 29%; pest or weed control at 70 g/ha [2, 15]: 95 to 100%; pest or weed control at 140 g/ha [2, 15]: 95 to 100%; pest or weed control at 70 g/ha [2, 16]: 0 to 29%; pest or weed control at 140 g/ha [2, 16]: 0 to 29%; pest or weed control at 70 g/ha [2, 17]: 0 to 29%; pest or weed control at 140 g/ha [2, 17]: 0 to 29%

Which pest or weed control at 70 g/ha [1, 3] does the source give for `COC(=O)c1nc(-c2cc(F)c(I)cc2F)c(Br)c(N)c1Cl` [Compound 100] here?
The pest or weed control at 70 g/ha was 30 to 44%.

And the pest or weed control at 140 g/ha [1, 3]?
Its pest or weed control at 140 g/ha is 60 to 74%.

What about the pest or weed control at 70 g/ha [1, 4] of the same compound?
Its pest or weed control at 70 g/ha is 0 to 29%.

What about the pest or weed control at 140 g/ha [1, 4] of the same compound?
The pest or weed control at 140 g/ha was 0 to 29%.

What about the pest or weed control at 70 g/ha [1, 5] of the same compound?
Its pest or weed control at 70 g/ha is 45 to 59%.

What about the pest or weed control at 140 g/ha [1, 5] of the same compound?
Its pest or weed control at 140 g/ha is 60 to 74%.

What about the pest or weed control at 70 g/ha [1, 6] of the same compound?
The pest or weed control at 70 g/ha was 0 to 29%.

What about the pest or weed control at 140 g/ha [1, 6] of the same compound?
The pest or weed control at 140 g/ha was 0 to 29%.

And the pest or weed control at 70 g/ha [1, 7]?
Its pest or weed control at 70 g/ha is 0 to 29%.

What about the pest or weed control at 140 g/ha [1, 7] of the same compound?
The pest or weed control at 140 g/ha was 0 to 29%.

And the pest or weed control at 70 g/ha [1, 8]?
Its pest or weed control at 70 g/ha is 0 to 29%.

And the pest or weed control at 140 g/ha [1, 8]?
Its pest or weed control at 140 g/ha is 0 to 29%.

What about the pest or weed control at 70 g/ha [1, 9] of the same compound?
The pest or weed control at 70 g/ha was 0 to 29%.

What about the pest or weed control at 140 g/ha [1, 9] of the same compound?
The pest or weed control at 140 g/ha was 0 to 29%.

What about the pest or weed control at 70 g/ha [1, 10] of the same compound?
The pest or weed control at 70 g/ha was 0 to 29%.

And the pest or weed control at 140 g/ha [1, 10]?
The pest or weed control at 140 g/ha was 45 to 59%.

What about the melting point of the same compound?
The melting point was 145 to 147 °C.

And the pest or weed control at 70 g/ha [2, 11]?
Its pest or weed control at 70 g/ha is 85 to 94%.

What about the pest or weed control at 140 g/ha [2, 11] of the same compound?
The pest or weed control at 140 g/ha was 85 to 94%.

And the pest or weed control at 70 g/ha [2, 12]?
The pest or weed control at 70 g/ha was 85 to 94%.

And the pest or weed control at 140 g/ha [2, 12]?
Its pest or weed control at 140 g/ha is 95 to 100%.

And the pest or weed control at 70 g/ha [2, 13]?
Its pest or weed control at 70 g/ha is 60 to 74%.

What about the pest or weed control at 140 g/ha [2, 13] of the same compound?
The pest or weed control at 140 g/ha was 60 to 74%.

And the pest or weed control at 70 g/ha [2, 14]?
The pest or weed control at 70 g/ha was 95 to 100%.

And the pest or weed control at 140 g/ha [2, 14]?
Its pest or weed control at 140 g/ha is 95 to 100%.

And the pest or weed control at 70 g/ha [2, 15]?
Its pest or weed control at 70 g/ha is 45 to 59%.

What about the pest or weed control at 140 g/ha [2, 15] of the same compound?
The pest or weed control at 140 g/ha was 45 to 59%.

What about the pest or weed control at 70 g/ha [2, 16] of the same compound?
Its pest or weed control at 70 g/ha is 85 to 94%.

And the pest or weed control at 140 g/ha [2, 16]?
The pest or weed control at 140 g/ha was 85 to 94%.

And the pest or weed control at 70 g/ha [2, 17]?
The pest or weed control at 70 g/ha was 0 to 29%.

And the pest or weed control at 140 g/ha [2, 17]?
The pest or weed control at 140 g/ha was 0 to 29%.
